According to publication PMC4187030, “Effect of cyclodextrin complexation on phenylpropanoids’ solubility and antioxidant activity” (Beilstein Journal of Organic Chemistry, 2014):
In brackets after ≈: the same amount, converted by molar mass. Read-outs that look alike come from different tables or passages of the source.

Columns and labels:
[1] = Formation constants (Kf) by UV–visible spectral displacement method, α-CD; type: physicochemical; conditions: UV–visible spectral displacement with MO (MO itself by direct titration), SD <10%
Method: (§1) Formation constant (Kf) values were calculated using a UV–visible spectral displacement method. This method implies first the characterization of the inclusion complexes between CDs and the competitor (methyl orange, MO). The results are summarized in Table 1 in comparison with values from the literature.
(§2) The UV–visible competition method with methyl orange (MO) as competitor was carried out according to the method described by Landy et al.. In order to calculate CD/PP Kf values, CD/MO inclusion complexes were firstly characterized by a direct titration method. Then, a spectral displacement method was applied by adding PP to a solution containing constant concentration of MO and CD. The addition of PP implied an absorbance increment leading to the calculation of CD/PP Kf values. Spectra were recorded between 520–530 nm for a MO concentration fixed at 0.1 mM. This wavelength range corresponds to the optimal spectral variation between the absorbance of free and complexed forms of MO. All Kf values were calculated by an algorithmic treatment applied to the first derivatives of UV spectra in order to avoid any spectral influence of diffraction phenomena. Absorption studies were performed using a UV–visible dual-beam spectrophotometer (Perkin Elmer Lambda 2S) with a 1 cm thick quartz cuvette.

[2] = Phase solubility studies, RAMEB; conditions: for Increase in formulation bulk / CE (complexation efficiency) / Kf: RAMEB; for Increase in formulation bulk: from CE and molecular weights; for CE (complexation efficiency): from slope of phase solubility diagram; for Kf: from slope of phase solubility diagram and S0, 25 °C; for St/S0 (solubility enhancement ratio): guest solubility in 10 mM RAMEB solution vs water
Method: (§3) Phase solubility studies were carried out according to the method described by Higuchi and Connors. Excess amount of PP was added to 1 mL of CD solution at different concentrations ranging from 0 to 10 mM. The mixtures were shaken at 25 °C for 24 h then filtered through a 0.45 μm membrane filter. The concentration of PP in the filtrate was determined spectrophotometrically at the maximum wavelength corresponding to each PP. Phase solubility diagrams were obtained by plotting the solubility of PP as a function of CD concentration. Kf value of CD/PP inclusion complex was calculated from the linear segment of the phase–solubility diagrams using the following equation: […]
(§4) where S0 is the intrinsic solubility of PP in the absence of CD and the Slope is the slope of the phase–solubility profile. The solubilizing potential of CD was evaluated by the complexation efficiency (CE) parameter. CE equal the complex to free CD concentration ratio and was calculated from the slope of the phase solubility diagram: […]
(§5) where [CD/PP] is the concentration of dissolved inclusion complex and [CD] is the concentration of dissolved free CD. The CE can be used to calculate the PP:CD ratio as follows:
(§6) The correlation between the CE and the molecular weight of CD or guest allowed the determination of the increase in formulation bulk which can be calculated using the following equation: […]
(§7) where MWCD and MWPP are the molecular weight values of CD and PP, respectively.

[3] = Method: as §3, §4, §5, §6, §7
[4] = Intrinsic solubility (S0) of PP in water; type: physicochemical; conditions: thermodynamic from solid, absence of CD, 25 °C
Method: as §3, §4

[5] = Phase solubility studies, HP-β-CD
Method: as §3, §4, §5, §6, §7

[6] = DPPH radical scavenging activity; conditions: for Change of DPPH radical scavenging activity upon complexation with CDs: PP in 10 mM CD solution vs water; for Kinetic behavior of reaction with DPPH•: PP with ethanolic DPPH• solution; for DPPH radical scavenging (antioxidant) activity of PP alone: absence of CD, 1 h (3, 4, 6, 7) or 15 h (1, 2, 5), 25 °C
Method: The 2,2-diphenyl-1-picrylhydrazyl (DPPH) radical scavenging activity of PP and their inclusion complexes was measured using the method described by Brand-Williams, Cuvelier, and Berset (1995) with some modifications. 1 mg of PP was dissolved in 50 mL of water, or 10 mM CD solution. 2 mL aliquot of the solution was vigorously mixed with 2 mL of ethanolic DPPH^• solution (0.1 mM). […]. Blank sample was prepared by mixing 2 mL of distilled water with 2 mL of DPPH^• solution. The scavenging activity was calculated using the following equation: […]
where As and A0 are the absorbance of sample and blank sample, respectively.

[7] = Formation constants (Kf) by UV–visible spectral displacement method, RAMEB; type: physicochemical; conditions: UV–visible spectral displacement with MO (MO itself by direct titration), SD <10%
Method: as §1, §2

[8] = design: method as in earlier work; conditions: cited from earlier work
[9] = Formation constants (Kf) by UV–visible spectral displacement method, HP-β-CD; type: physicochemical; conditions: UV–visible spectral displacement with MO (MO itself by direct titration), SD <10%
Method: as §1, §2

[10] = Phase solubility studies, CRYSMEB
Method: as §3, §4, §5, §6, §7

[11] = Formation constants (Kf) by UV–visible spectral displacement method, CRYSMEB; type: physicochemical; conditions: UV–visible spectral displacement with MO (MO itself by direct titration), SD <10%
Method: as §1, §2

[12] = Phase solubility studies, β-CD
Method: as §3, §4, §5, §6, §7

[13] = Formation constants (Kf) by UV–visible spectral displacement method, β-CD; type: physicochemical; conditions: UV–visible spectral displacement with MO (MO itself by direct titration), SD <10%
Method: as §1, §2

[14] = CRYSMEB, cited from earlier work
[15] = β-CD, cited from earlier work
[16] = HP-β-CD, cited from earlier work
[17] = α-CD; ref 24; cited from earlier work
[18] = RAMEB, cited from earlier work

O=C(O)/C=C/c1ccc(O)cc1 [p-Coumaric acid (5), p-coumaric acid]
Formation constant (Kf) [1]: 1816 M⁻¹ | Increase in formulation bulk [2]: 11 | CE (complexation efficiency) [2]: 2.57 | Kf [2]: 1228 M⁻¹ | St/S0 (solubility enhancement ratio) [2]: 4.4 | CE (complexation efficiency) [3]: 4.17 | Increase in formulation bulk [3]: 7 | Kf [3]: 1988 M⁻¹ | Molar ratio (PP:CD) [3]: 1:1.24 | solubility at 24 h [4]: 344 µg/mL (≈ 2.1 mM) | Increase in formulation bulk ([5]; HP-β-CD, from CE and molecular weights): 13 | CE (complexation efficiency) ([5]; HP-β-CD, from slope of phase solubility diagram): 2.30 | Kf ([5]; HP-β-CD, from slope of phase solubility diagram and S0, 25 °C): 1099 M⁻¹ | St/S0 (solubility enhancement ratio) ([5]; guest solubility in 10 mM HP-β-CD solution vs water): 4.4 | Change of DPPH radical scavenging activity upon complexation with CDs [6]: kept unchanged | Kinetic behavior of reaction with DPPH• [6]: slow kinetic behavior | DPPH radical scavenging (antioxidant) activity of PP alone [6]: higher antioxidant activity | Formation constant (Kf) [7]: 1030 M⁻¹ | log P [8]: 1.43 | Formation constant (Kf) [9]: 787 M⁻¹ | Increase in formulation bulk ([10]; CRYSMEB, from CE and molecular weights): 11 | CE (complexation efficiency) ([10]; CRYSMEB, from slope of phase solubility diagram): 1.89 | Kf ([10]; CRYSMEB, from slope of phase solubility diagram and S0, 25 °C): 900 M⁻¹ | St/S0 (solubility enhancement ratio) ([10]; guest solubility in 10 mM CRYSMEB solution vs water): 4 | Formation constant (Kf) [11]: 668 M⁻¹ | St/S0 (solubility enhancement ratio) ([12]; guest solubility in 10 mM β-CD solution vs water): 2.8 | Increase in formulation bulk ([12]; β-CD, from CE and molecular weights): 18 | CE (complexation efficiency) ([12]; β-CD, from slope of phase solubility diagram): 0.64 | Kf ([12]; β-CD, from slope of phase solubility diagram and S0, 25 °C (linear portion for 1 and 2)): 306 M⁻¹ | Formation constant (Kf) [13]: 338 M⁻¹

C=CCc1ccc(O)c(OC)c1 [Eugenol (4), eugenol]
Formation constant (Kf) [1]: 350 M⁻¹ | Formation constant (Kf) ([14]; ref 21): 401 M⁻¹ | Formation constant (Kf) ([14]; ref 24): 454 M⁻¹ | Increase in formulation bulk [2]: 11 | CE (complexation efficiency) [2]: 3.48 | Kf [2]: 550 M⁻¹ | St/S0 (solubility enhancement ratio) [2]: 2.2 | Formation constant (Kf) ([15]; ref 21): 322 M⁻¹ | Formation constant (Kf) ([15]; ref 24): 264 M⁻¹ | Formation constant (Kf) ([15]; ref 25): 357 M⁻¹ | CE (complexation efficiency) [3]: 1.56 | Increase in formulation bulk [3]: 10 | Kf [3]: 246 M⁻¹ | Molar ratio (PP:CD) [3]: 1:1.64 | solubility at 24 h [4]: 1040 µg/mL (≈ 6.32 mM) | CE (complexation efficiency) [5]: 2.81 | Increase in formulation bulk [5]: 12 | Kf [5]: 445 M⁻¹ | Molar ratio (PP:CD) [5]: 1:1.36 | Formation constant (Kf) ([16]; ref 21): 445 M⁻¹ | Formation constant (Kf) ([16]; ref 24): 462 M⁻¹ | Change of DPPH radical scavenging activity upon complexation with CDs [6]: kept unchanged | Kinetic behavior of reaction with DPPH• [6]: reacted rapidly | DPPH radical scavenging (antioxidant) activity of PP alone [6]: higher antioxidant activity | Formation constant (Kf) [17]: 94 M⁻¹ | Formation constant (Kf) ([18]; ref 21): 521 M⁻¹ | Formation constant (Kf) ([18]; ref 24): 568 M⁻¹ | log P [8]: 2.100 | Formation constant (Kf) [9]: 436 M⁻¹ | CE (complexation efficiency) [10]: 2.78 | Increase in formulation bulk [10]: 10 | Kf [10]: 440 M⁻¹ | Molar ratio (PP:CD) [10]: 1:1.36 | CE (complexation efficiency) [12]: 3.25 | Increase in formulation bulk [12]: 9 | Kf [12]: 513 M⁻¹ | Molar ratio (PP:CD) [12]: 1:1.31
